How the values were obtained:
[1] = test system: p-ERK1/2 in H358 cells; experiment: p-ERK AlphaLisa SureFire; assay type: cell-based, human; details: H358 cells (KRAS G12C)
Protocol: (§1) Cells were plated at ˜20×10^3 cells per well and following overnight incubation were washed with serum-free media. Cells were then incubated for one hour with increasing concentrations of the test article in serum-free media containing 0.2% BSA prior to termination of the assay and measurement of pERK levels in cellular lysates by AlphaLisa SureFire Ultra kit conducted according to the manufacturer's instructions.

[2] = test system: p-ERK1/2 in Calu-1 cells; experiment: p-ERK AlphaLisa SureFire; assay type: cell-based, human; details: Calu-1 cells (KRAS G12C)
Protocol: as §1

[3] = test system: p-ERK1/2 in H1792 cells; experiment: p-ERK AlphaLisa SureFire; assay type: cell-based; details: H1792 cells (KRAS G12C)
Protocol: as §1

[4] = test system: MIA-Pa-Ca-2 xenograft; experiment: MIA-Pa-Ca-2 xenograft, Compound C with Abemaciclib (Example 8); assay type: in vivo, mice; details: Compound C 30 mg/kg PO, Abemaciclib 50 mg/kg
Description: Similar methods were used to evaluate efficacy of test articles in the pancreatic MiaPaca-2 KRas^G12C xenograft model. Balb/c nude mice (6-8 weeks old) were implanted with […] MiaPaca-2 tumor cells in 50% Matrigel subcutaneously in the flank. […] Administration of test articles and study design are as described above for H358 xenograft model.
(§2) The effects on tumor cell growth in vivo of another SHP2 inhibitor (Compound C) as a monotherapy or as a combination therapy with various Ras pathway inhibitors were evaluated in the NSCLC H358 KRas^G12C and MIA-Pa-Ca-2 xenograft models as described above in Example 1, except that the test article and vehicle formulation was (2% HPMC E-50, 0.5% Tween 80 in 50 mM Sodium Citrate Buffer, pH 4.0)+/− the inhibitor compound(s). […] Test compounds or vehicle control were administered by oral gavage daily. The study endpoint was defined as a mean tumor volume of 2000 mm^3 in the control group or 22 days post-dosing, whichever came first. Mean tumor volume data are reported for all animals that remained on study.

[5] = test system: H358 KRas G12C xenograft; assay type: in vivo; details: daily PO, Compound C 10 mg/kg, Trametinib 1 mg/kg, Cobimetinib 2.5 mg/kg, Ulixertinib 100 mg/kg
Protocol: The positive control, paclitaxel (30 mg/kg iv) in 5% ethanol, 5% cremophor EL, in 5% dextrose in deionized water was administered once every five days. Trametinib (1 mg/kg PO in 0.5% Methylcellulose+0.5% Tween 80) was administered by oral gavage daily. The study endpoint was defined as a mean tumor volume of 2000 mm^3 in the control group or 22 days, whichever came first. Mean tumor volume data are reported for all animals that remained on study.
as §2

[6] = test system: RAS-GTP in NCI-H1838 cells; experiment: RAS-GTP pulldown (Raf-RBD); assay type: cell-based; details: NCI-H1838 (NF1 LOF), MEK inhibition by trametinib
Protocol: (§3) To determine the effects of small molecules on levels of activated RAS-GTPase, cell lines of interest were cultured under standard 2D culture conditions. Cells were seeded and following overnight incubation incubated at 37° C. with vehicle (DMSO) or test article(s). After an appropriate incubation period, cells were washed and cell lysis buffer added to prepare a cell lysate. The levels of Ras-GTP in the lysates were determined using affinity purification of a Raf-RBD (Ras binding domain of Raf)/GTP-Ras complex. In one approach, the Pierce Active Ras Pulldown and Detection Kit was used. Briefly, clarified lysates (500 μg total protein, quantified by BCA) were mixed with glutathione resin, which had been preincubated with GST-Raf-RBD. The mixture was vortexed and incubated at 4° C. for 1 hour with gentle rocking. The resin was washed three times with lysis buffer and bound Ras-GTP eluted by addition of 2× reducing sample buffer. Eluted proteins were separated by SDS-PAGE using a 4-15% Tris-glycine gel (BioRad). Proteins were transferred to a nitrocellulose membrane for western blot using an anti-Ras antibody (Thermofisher, 1:200) and a Licor IRDye-800 anti-mouse secondary antibody (1:20,000). The Licor Odyssey CLx was used for visualization.
as §3, with “resin” for “resin,”

[7] = test system: NCI-H358 xenograft; experiment: NCI-H358 xenograft, alone and with trametinib (Example 7); details: trametinib 1 mg/kg
Protocol: The effects of a SHP2 inhibitor on tumor cell growth in vivo were evaluated in the NSCLC H358 xenograft model using female athymic nude mice (6-8 weeks old). Mice were implanted with H358 tumor cells in 50% Matrigel (1×10^7 cells/animal) subcutaneously in the flank. Once tumors reached an average size of 200 mm^3 mice were randomized to treatment groups and administration of test article or vehicle (50 mM acetate buffer, pH 4.6 containing 10% captisol, unless otherwise indicated) initiated. […] Body weight and tumor volume (using calipers) was measured every other day until study endpoints.

[8] = test system: phosphorylated RTKs in MDA-MB-231 cells; experiment: Phospho-RTK array; assay type: cell-based; details: MDA-MB-231 (KRAS G13D), 24 hours; selumetinib 5 μM, Compound A 1 and 5 μM
Protocol: To determine the effects of test article(s) on levels of phosphorylated RTKs, MDA-MB231 cells were seeded in 6-well plates and incubated overnight in full growth medium. Cells were treated for 24 hours with selumetinib (5 μM) or Compound A (1 and 5 μM) or left untreated (DMSO control). Lysates were generated using the lysis buffer provided with the kit (Phospho-RTK Array; R&D systems) with inclusion of a protease inhibitor cocktail. To control for protein concentration, total protein levels were quantified using BCA reagent kit. The levels of phospho-RTK were determined according to the manufacturer's instructions.

C=CC(=O)N1CC(N2CCN(C(=O)CNc3cc(C4(C)CC4)c(Cl)cc3O)CC2)C1 [ARS-853, reference compound]
inhibition of p-ERK1/2 levels [1]: sensitive
inhibition of p-ERK1/2 levels [2]: sensitive
inhibition of p-ERK1/2 levels [3]: sensitive

CCN1CCN(Cc2ccc(Nc3ncc(F)c(-c4cc(F)c5nc(C)n(C(C)C)c5c4)n3)nc2)CC1 [Abemaciclib]
tumor growth as a single agent compared to vehicle control [4]: significant tumor growth inhibition

O=C(c1ccc(F)c(F)c1Nc1ccc(I)cc1F)N1CC(O)([C@@H]2CCCCN2)C1 [Cobimetinib]
tumor growth as a single agent compared to vehicle control [5]: significant tumor growth inhibition

CC(=O)Nc1cccc(-n2c(=O)n(C3CC3)c(=O)c3c(Nc4ccc(I)cc4F)n(C)c(=O)c(C)c32)c1 [Trametinib, reference compound]
tumor growth as a single agent compared to vehicle control [5]: significant tumor growth inhibition
feedback-driven RAS-GTP accumulation [6]: caused feedback-driven RAS-GTP accumulation
tumor growth as compared to the vehicle control ([7]; single agent, Compound B 10 and 30 mg/kg): significant tumor growth inhibition
tumor growth inhibition, TGI [7]: 79%

CC(C)Nc1cc(-c2c[nH]c(C(=O)N[C@H](CO)c3cccc(Cl)c3)c2)c(Cl)cn1 [Ulixertinib]
tumor growth as a single agent compared to vehicle control [5]: significant tumor growth inhibition

Cn1cnc2c(F)c(Nc3ccc(Br)cc3Cl)c(C(=O)NOCCO)cc21 [selumetinib, Selumetinib, reference compound]
feedback-driven p-RTK hyperactivation [8]: caused feedback-driven p-RTK hyperactivation
